Measurements reported in ChEMBL document CHEMBL1811886 (J Med Chem, 2011).

Assays:
[1] = target: T1, Histamine H3 receptor (Homo sapiens, UniProt Q9Y5N1); assay: Displacement of [3H]NAMH from human histamine H3 receptor expressed in CHO cells; assay type: cell-based
[2] = target: T2, Histamine H3 receptor (Rattus norvegicus, UniProt Q9QYN8); assay: Displacement of [3H]NAMH from rat histamine H3 receptor expressed in CHO cells; assay type: cell-based
[3] = Inhibition of PDE3
[4] = target: T2, Histamine H3 receptor; assay: Antagonist activity at histamine H3 receptor in rat cortical membrane; assay type: functional, cell membranes
[5] = target: T1, Histamine H3 receptor; assay: Inverse agonist activity at human histamine H3 receptor assessed as inhibition of R-alpha-methylhistamine induced [35S]GTPgammaS binding; assay type: functional
[6] = tested on: Rattus norvegicus; assay: Inhibition of RAMH-induced dipsogenia in ip dosed Long Evans rat administered 15 mins prior to RAMH challenge; assay type: functional
[7] = target: Alpha-1A adrenergic receptor (Homo sapiens, UniProt P35348); assay: Inhibition of adrenergic alpha 1A receptor
Chain of Alpha-1A adrenergic receptor (P35348 whole entry): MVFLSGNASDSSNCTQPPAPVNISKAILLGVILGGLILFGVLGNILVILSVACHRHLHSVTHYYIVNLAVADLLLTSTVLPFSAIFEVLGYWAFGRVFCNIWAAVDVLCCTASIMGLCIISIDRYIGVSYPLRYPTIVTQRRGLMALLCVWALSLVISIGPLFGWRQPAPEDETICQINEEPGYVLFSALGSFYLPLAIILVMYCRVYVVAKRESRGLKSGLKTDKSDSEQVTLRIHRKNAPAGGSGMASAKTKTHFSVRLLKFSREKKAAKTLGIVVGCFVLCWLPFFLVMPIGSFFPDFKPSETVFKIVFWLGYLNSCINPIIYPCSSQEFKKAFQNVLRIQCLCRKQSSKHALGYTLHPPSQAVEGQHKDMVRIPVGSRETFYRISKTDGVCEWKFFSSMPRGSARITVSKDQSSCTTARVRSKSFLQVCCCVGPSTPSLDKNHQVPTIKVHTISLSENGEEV

[8] = Aqueous solubility of the compound at pH 2; assay type: physicochemical
[9] = target: Muscarinic acetylcholine receptor M2 (Homo sapiens, UniProt P08172); assay: Inhibition of muscarinic M2 receptor
Chain of Muscarinic acetylcholine receptor M2 (P08172 whole entry): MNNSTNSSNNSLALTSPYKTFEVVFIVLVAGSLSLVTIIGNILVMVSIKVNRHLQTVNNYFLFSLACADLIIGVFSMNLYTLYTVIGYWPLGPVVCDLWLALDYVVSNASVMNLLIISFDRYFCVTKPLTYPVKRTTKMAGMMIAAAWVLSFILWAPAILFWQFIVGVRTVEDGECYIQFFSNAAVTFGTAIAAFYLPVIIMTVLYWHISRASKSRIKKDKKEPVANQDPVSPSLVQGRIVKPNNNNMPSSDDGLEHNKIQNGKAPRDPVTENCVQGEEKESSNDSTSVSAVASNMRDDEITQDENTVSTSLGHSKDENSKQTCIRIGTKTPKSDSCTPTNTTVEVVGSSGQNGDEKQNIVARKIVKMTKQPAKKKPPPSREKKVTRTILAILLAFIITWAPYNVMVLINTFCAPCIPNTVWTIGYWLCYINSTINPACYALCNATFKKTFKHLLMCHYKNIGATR

[10] = tested on: Rhesus monkey; assay: Toxicity in monkey up to 28 days; assay type: organism-based, Macaca mulatta; details: in vivo, 672 h
[11] = target: T3, Sodium-dependent noradrenaline transporter (Homo sapiens, UniProt P23975); assay: Inhibition of recombinant human norepinephrine transporter
T3 sequence (P23975 whole entry): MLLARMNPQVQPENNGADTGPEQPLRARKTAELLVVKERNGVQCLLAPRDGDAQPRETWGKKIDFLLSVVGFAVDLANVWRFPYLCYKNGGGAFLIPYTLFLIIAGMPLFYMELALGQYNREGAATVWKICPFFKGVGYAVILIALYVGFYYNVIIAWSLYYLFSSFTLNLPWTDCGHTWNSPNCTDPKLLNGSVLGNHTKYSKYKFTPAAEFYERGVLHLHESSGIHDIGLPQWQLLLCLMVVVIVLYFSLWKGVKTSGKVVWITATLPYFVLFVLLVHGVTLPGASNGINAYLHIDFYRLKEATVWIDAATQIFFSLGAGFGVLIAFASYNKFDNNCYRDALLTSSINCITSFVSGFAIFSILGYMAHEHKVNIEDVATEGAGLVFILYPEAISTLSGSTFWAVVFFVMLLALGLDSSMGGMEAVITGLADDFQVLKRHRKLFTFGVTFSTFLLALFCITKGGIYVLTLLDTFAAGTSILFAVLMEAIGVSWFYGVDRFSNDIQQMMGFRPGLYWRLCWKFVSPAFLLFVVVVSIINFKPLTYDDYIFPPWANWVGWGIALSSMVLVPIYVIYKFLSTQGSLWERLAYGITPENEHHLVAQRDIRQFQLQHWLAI

[12] = Mutagenic activity in human peripheral blood lymphocytes by micronucleus test in presence metabolic activation; assay type: toxicity, cell-based; details: lymphocyte
[13] = species: Rattus norvegicus; assay: Toxicity in rat up to 28 days; assay type: organism-based; details: in vivo, 672 h
[14] = Distribution coefficient log D of the compound at pH 7.4; assay type: physicochemical; details: octanol/water
[15] = tested on: Rattus norvegicus; assay: Inhibition of RAMH-induced dipsogenia in Long Evans rat administered as po 15 mins prior to RAMH challenge; assay type: functional
[16] = Dissociation constant, pKa of the compound; assay type: physicochemical
[17] = tested on: Salmonella typhimurium; assay: Mutagenic activity in Salmonella Typhimurium by Ames test; assay type: toxicity, organism-based; details: salmonella enterica subsp. enterica serovar typhimurium
[18] = tested on: Rhesus monkey; assay: Toxicity in monkey assessed as changes in cardiovascular function after 28 days; assay type: organism-based, Macaca mulatta, Heart; details: in vivo, 672 h
[19] = target: T3, Sodium-dependent noradrenaline transporter; assay: Inhibition of norepinephrine transporter
[20] = Aqueous solubility of the compound at pH 7.4; assay type: physicochemical
[21] = Apparent permeability across human Caco2 cell membrane; assay type: ADME, cell-based; details: Caco-2
[22] = target: T4, Sodium-dependent dopamine transporter (Homo sapiens, UniProt Q01959); assay: Inhibition of recombinant human dopamine transporter
T4 sequence (Q01959 whole entry): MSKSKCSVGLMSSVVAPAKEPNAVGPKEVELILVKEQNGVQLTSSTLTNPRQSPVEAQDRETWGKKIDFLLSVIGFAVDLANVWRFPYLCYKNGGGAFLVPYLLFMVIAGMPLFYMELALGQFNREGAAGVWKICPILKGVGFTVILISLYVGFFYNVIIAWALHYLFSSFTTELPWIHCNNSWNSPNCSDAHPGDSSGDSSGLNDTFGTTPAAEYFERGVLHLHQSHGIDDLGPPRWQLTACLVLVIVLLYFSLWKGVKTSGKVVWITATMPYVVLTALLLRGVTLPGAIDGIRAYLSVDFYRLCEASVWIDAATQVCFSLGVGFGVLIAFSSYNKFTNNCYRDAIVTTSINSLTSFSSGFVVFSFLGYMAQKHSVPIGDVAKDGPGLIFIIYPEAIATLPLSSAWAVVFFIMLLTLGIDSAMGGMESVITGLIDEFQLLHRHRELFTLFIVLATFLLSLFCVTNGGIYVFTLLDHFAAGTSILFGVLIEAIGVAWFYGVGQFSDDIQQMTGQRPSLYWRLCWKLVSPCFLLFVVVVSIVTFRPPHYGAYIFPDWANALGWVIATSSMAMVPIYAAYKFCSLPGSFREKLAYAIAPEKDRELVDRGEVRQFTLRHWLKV

[23] = tested on: Rattus norvegicus; assay: Toxicity in rat central nervous system assessed as changes in behavioral response at 10 to 300 mg/kg, po measured from 15 mins through 6 hrs by Irwin test; assay type: organism-based; parameters: dose 10-300 mg/kg, route oral; details: in vivo
[24] = tested on: Rhesus monkey; assay: Toxicity in monkey assessed as changes in respiratory function after 28 days; assay type: organism-based, Macaca mulatta; details: in vivo, 672 h
[25] = Mutagenic activity in human peripheral blood lymphocytes by micronucleus test in absence metabolic activation; assay type: toxicity, cell-based; details: lymphocyte
[26] = target: Poly [ADP-ribose] polymerase 1 (Homo sapiens, UniProt P09874); assay: Inhibition of human PARP1
Chain of Poly [ADP-ribose] polymerase 1 (P09874 whole entry): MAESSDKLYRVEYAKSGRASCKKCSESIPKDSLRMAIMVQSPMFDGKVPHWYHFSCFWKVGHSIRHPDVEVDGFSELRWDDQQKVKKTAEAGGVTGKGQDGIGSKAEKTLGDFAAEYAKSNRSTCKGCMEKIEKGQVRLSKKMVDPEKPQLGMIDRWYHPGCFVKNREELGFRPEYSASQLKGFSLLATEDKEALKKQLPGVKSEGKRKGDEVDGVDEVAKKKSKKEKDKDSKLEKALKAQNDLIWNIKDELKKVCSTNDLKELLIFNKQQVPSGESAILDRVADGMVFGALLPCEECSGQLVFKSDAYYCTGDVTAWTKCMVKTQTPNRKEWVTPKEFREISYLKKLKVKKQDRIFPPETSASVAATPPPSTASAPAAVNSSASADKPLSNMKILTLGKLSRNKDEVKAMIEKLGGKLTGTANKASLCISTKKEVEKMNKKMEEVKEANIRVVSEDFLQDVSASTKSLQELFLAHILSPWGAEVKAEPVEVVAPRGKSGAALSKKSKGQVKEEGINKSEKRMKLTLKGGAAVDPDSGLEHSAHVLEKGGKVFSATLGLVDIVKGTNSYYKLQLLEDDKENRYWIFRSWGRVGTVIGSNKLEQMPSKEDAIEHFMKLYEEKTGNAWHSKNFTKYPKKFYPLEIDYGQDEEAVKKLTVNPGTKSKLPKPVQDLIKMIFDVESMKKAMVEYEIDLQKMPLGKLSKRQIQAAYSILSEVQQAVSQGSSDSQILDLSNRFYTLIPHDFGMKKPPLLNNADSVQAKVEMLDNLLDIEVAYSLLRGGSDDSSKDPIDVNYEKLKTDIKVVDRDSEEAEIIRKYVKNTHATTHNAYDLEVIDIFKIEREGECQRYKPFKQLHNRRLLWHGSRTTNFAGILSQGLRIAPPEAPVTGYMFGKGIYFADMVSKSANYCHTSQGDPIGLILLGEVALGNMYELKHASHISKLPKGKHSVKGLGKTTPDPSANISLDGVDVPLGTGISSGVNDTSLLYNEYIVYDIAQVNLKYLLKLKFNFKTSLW

[27] = Drug level in rat brain at 100 mg/kg, po administered after 1 hr post dosing; assay type: ADME, organism-based; parameters: dose 100 mg/kg, route oral; details: read-out: Drug uptake
[28] = tested on: Rattus norvegicus; assay: Toxicity in rat central nervous system assessed as side effects up to 100 mg/kg, po measured from 15 mins through 6 hrs by Irwin test; assay type: organism-based; parameters: dose 100 mg/kg, route oral; details: in vivo
[29] = target: T4, Sodium-dependent dopamine transporter; assay: Inhibition of dopamine transporter
[30] = Mutagenic activity in Salmonella Typhimurium by Ames test in presence of rat liver S9 fraction; assay type: toxicity, subcellular; details: salmonella enterica subsp. enterica serovar typhimurium
[31] = target: T2, Histamine H3 receptor; assay: Inverse agonist activity at rat histamine H3 receptor assessed as inhibition of R-alpha-methylhistamine induced [35S]GTPgammaS binding; assay type: functional

T2 sequence (Q9QYN8 whole entry): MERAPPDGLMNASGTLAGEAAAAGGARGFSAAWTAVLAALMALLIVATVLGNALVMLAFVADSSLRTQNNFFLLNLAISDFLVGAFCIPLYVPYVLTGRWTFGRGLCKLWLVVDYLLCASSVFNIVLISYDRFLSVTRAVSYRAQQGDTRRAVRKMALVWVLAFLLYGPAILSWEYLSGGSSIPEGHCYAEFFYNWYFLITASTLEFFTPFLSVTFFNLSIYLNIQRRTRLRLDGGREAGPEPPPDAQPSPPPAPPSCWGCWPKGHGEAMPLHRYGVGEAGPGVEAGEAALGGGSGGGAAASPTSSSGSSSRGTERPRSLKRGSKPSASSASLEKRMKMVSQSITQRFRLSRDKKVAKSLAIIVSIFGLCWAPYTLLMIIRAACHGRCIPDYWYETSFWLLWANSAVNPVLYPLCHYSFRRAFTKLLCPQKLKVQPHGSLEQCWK
T1 sequence (Q9Y5N1 whole entry): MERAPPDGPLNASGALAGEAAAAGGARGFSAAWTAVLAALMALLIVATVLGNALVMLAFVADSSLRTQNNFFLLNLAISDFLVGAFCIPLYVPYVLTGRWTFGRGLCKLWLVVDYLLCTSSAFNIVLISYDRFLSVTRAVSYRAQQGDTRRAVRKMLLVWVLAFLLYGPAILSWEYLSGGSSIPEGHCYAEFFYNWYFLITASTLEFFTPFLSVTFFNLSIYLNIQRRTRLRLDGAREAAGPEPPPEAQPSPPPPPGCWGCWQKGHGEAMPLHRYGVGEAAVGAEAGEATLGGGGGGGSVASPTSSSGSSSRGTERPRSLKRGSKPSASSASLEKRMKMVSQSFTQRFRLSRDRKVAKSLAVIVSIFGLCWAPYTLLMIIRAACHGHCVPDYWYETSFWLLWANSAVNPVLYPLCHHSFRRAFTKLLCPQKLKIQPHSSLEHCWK

## C[C@@H]1CCCN1CCCOc1ccc(-c2ccc(=O)[nH]n2)cc1 [IRDABISANT]
[1]
  Ki: 0.002 µM
[2]
  Ki: 0.0072 µM
[3]
  IC50: 15 µM
[4]
  Ki: 0.0027 µM
[5]
  EC50: 0.0011 µM
[6]
  ED50: 0.06 mg/kg
[7]
  Ki: 9.8 µM
[8]
  solubility: > 2000 µg/mL
[9]
  Ki: 3.7 µM
[10]
  Activity: Non-toxic
[11]
  IC50: 17.5 µM
[12]
  Activity: Non-toxic
[13]
  Activity: Non-toxic
[14]
  logD: 0.6
[15]
  ED50: 0.01 mg/kg
[16]
  pKa: 10.2
[17]
  Activity: Non-toxic
[18]
  Activity: Non-toxic
[19]
  Ki: 10 µM
[20]
  solubility: > 2000 µg/mL
[21]
  Papp: 13.5 ×10⁻⁶ cm/s
[22]
  IC50: 9.4 µM
[23]
  Activity: Non-toxic
[24]
  Activity: Non-toxic
[25]
  Activity: Non-toxic
[26]
  IC50: > 30 µM
[27]
  concentration at 1 h: 36 µM
[28]
  Activity: Non-toxic
[29]
  Ki: 11 µM
[30]
  Activity: Non-toxic
[31]
  EC50: 0.002 µM
